Laboratory results reported in patent publication US20150045553A1, “PHENYLTRIAZOLE DERIVATIVE” (TOSHO PHARMACEUTICAL CO., LTD, priority 2011, published 2015).
Like-named read-outs stand apart in the source and are kept apart here.

How the values were obtained:
[1] = biological target: T1, histamine H3 receptor (Rattus norvegicus, UniProt Q9QYN8); assay: [35S]GTP-γ-S binding test (R(−)-α-methyl histamine stimulated, frontal cortex membrane fraction); assay type: biochemical; conditions: R(−)-α-methyl histamine 300 nM, [35S]GTP-γ-S 0.3 nM
T1 construct: The frontal cortex dissected from rats was homogenized; from tissue; host or cells: rat frontal cortex membrane fraction
T1 sequence (Q9QYN8 whole entry): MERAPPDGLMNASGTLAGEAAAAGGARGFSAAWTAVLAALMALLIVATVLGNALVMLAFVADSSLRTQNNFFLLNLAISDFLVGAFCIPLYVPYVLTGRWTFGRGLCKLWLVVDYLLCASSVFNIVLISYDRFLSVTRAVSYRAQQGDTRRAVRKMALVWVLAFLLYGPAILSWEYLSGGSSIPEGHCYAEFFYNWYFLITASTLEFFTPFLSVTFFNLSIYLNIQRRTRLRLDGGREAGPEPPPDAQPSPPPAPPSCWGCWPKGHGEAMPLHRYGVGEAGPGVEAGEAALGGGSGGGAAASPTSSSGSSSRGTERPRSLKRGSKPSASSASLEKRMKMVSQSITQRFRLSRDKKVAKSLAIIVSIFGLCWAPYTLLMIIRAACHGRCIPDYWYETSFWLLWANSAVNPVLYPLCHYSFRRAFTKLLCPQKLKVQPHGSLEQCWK
Description: The frontal cortex dissected from rats was homogenized with a Teflon (registered trademark) homogenizer in a 30 mM Tris-HCl buffer solution (pH 7.4) containing 2.5 mM calcium chloride dihydrate. The homogenate was centrifuged at 48,000×g for 15 minutes. The supernatant was removed and the pellet was suspended in a 30 mM Tris-HCl buffer solution (pH 7.4) containing 2.5 mM calcium chloride dihydrate and centrifuged at 48,000×g for 15 minutes. The supernatant was removed and the pellet was suspended in a 30 mM Tris-HCl buffer solution (pH 7.4) containing 2.5 mM calcium chloride dihydrate and after incubation at 37° C. for 30 minutes, the suspension was centrifuged at 48,000×g for 15 minutes. The resulting supernatant was removed and the pellet was suspended in a 20 mM HEPES buffer solution (pH 7.4) containing 100 mM sodium chloride and 10 mM magnesium chloride to give a membrane fraction. […] After the washing, the filters were dried and a scintillator was added to measure the residual radioactivity on the filter with TopCount (PerkinElmer).
The residual radioactivity in the absence of R(−)-α-methyl histamine was taken as indicative of nonspecific binding and the difference from the residual radioactivity in the presence of R(−)-α-methyl histamine was taken as indicative of specific binding. […]

[2] = biological target: T2, H3 receptor (Rattus norvegicus, UniProt Q9QYN8); assay: Rat H3 receptor binding test (N-α-methyl[3H]histamine, frontal cortex membrane fraction); conditions: N-α-methyl[3H]histamine 0.75 nM, room temperature, an hour
T2 construct: The frontal cortex dissected from rats was homogenized; from tissue; host or cells: rat frontal cortex membrane fraction
T2 sequence (Q9QYN8 whole entry): as above
Description: (Test 1: Rat H3 Receptor Binding Test)
The frontal cortex dissected from rats was homogenized with a Teflon (registered trademark) homogenizer in a 50 mM Tris-HCl buffer solution (pH 7.4) containing a protease inhibitor (Complete EDTA-free; Roche Diagnostics) and 5 mM EDTA. The homogenate was centrifuged at 48,000×g for 15 minutes. The supernatant was removed and the pellet was suspended in a 50 mM Tris-HCl buffer solution (pH 7.4) containing 5 mM EDTA and centrifuged at 48,000×g for 15 minutes. The supernatant was removed and the pellet was suspended in a 50 mM Tris-HCl buffer solution (pH 7.4) containing 5 mM EDTA to give a membrane fraction. The membrane fraction (the protein content in the final reaction mixture: 75 μg), N-α-methyl[^3H]histamine (PerkinElmer; final concentration: 0.75 nM) and a test drug were mixed and subjected to reaction at room temperature for an hour. After the end of the reaction, the reaction mixture was suction filtered through a 96-well GF/C filter plate pretreated with 0.3% polyethyleneimine; the filters were then washed five times with a 50 mM Tris-HCl buffer solution (pH 7.4) containing 5 mM EDTA. After the washing, the filters were dried and a scintillator was added to measure the residual radioactivity on the filter with TopCount (PerkinElmer).
The residual radioactivity in the presence of 10 μM thioperamide was taken as indicative of nonspecific binding and the difference from the residual radioactivity in the absence of thioperamide was taken as indicative of specific binding. Each of the test drugs was dissolved and diluted in DMSO at varying concentrations to plot a dose-response curve from the corresponding residual radioactivities; the concentration of test drug that inhibited the specific binding by 50% (IC50) was determined from this curve.

[3] = Rat in vivo pharmacokinetic study (distribution among plasma, brain and cerebrospinal fluid); conditions: SD rats, single oral administration, 3 mg/kg, an hour after the administration
Description: (Test 3: Rat in vivo pharmacokinetic study)
SD rats were given a single oral administration of Compound No. 8, 19 or 22 at a dose of 3 mg/kg and an hour after the administration, the compound's distribution among the plasma, brain, and cerebrospinal fluid was checked. Quantification was effected by a high-performance liquid chromatography/tandem mass spectrometer API 4000 (LC-MS/MS; AB Sciex).

[4] = biological target: T3, P-glycoprotein (human MDR1) (Homo sapiens, UniProt P08183); assay: P-glycoprotein substrate recognition test (LLC-GA5-COL300 cells, transwell); assay type: in vitro ADME; conditions: LLC-PK1, ratio of membrane permeation coefficients for apical→basal and basal→apical directions
T3 construct: expressed in transfected cells; host or cells: LLC-GA5-COL300 (LLC-PK1 pig kidney epithelial cells expressing human MDR1)
T3 sequence (P08183 whole entry): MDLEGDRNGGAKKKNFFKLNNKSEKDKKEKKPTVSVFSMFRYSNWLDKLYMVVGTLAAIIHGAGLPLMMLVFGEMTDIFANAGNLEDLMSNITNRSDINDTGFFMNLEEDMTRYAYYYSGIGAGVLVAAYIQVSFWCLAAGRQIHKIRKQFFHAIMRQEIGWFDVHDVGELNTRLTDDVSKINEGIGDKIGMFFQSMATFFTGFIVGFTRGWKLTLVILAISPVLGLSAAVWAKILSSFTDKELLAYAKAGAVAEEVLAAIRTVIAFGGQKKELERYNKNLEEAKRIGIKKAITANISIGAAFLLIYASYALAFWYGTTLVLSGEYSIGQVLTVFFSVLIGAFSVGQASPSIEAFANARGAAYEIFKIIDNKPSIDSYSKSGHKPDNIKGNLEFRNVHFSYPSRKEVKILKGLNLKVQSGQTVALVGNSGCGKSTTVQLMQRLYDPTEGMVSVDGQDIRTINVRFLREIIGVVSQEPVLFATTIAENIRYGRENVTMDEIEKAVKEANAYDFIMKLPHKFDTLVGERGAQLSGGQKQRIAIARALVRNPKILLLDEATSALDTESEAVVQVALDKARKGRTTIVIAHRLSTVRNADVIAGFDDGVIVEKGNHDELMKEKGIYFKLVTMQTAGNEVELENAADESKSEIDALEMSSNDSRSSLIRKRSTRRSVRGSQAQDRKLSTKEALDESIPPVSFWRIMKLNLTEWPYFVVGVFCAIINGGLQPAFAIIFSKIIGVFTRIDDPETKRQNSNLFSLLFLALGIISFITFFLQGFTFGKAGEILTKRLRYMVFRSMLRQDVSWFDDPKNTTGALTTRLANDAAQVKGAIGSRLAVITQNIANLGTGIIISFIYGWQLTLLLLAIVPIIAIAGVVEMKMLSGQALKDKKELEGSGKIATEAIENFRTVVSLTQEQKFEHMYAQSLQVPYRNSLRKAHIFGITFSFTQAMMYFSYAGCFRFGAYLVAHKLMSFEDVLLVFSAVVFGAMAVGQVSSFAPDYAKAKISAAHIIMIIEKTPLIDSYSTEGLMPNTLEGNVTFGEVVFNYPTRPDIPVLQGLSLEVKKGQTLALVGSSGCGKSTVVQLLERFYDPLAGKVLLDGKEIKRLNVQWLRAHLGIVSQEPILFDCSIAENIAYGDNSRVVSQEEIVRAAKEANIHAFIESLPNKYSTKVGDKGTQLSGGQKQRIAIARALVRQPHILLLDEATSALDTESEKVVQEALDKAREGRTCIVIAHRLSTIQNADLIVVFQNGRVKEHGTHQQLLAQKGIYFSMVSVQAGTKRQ
Description: (Test 4: P-Glycoprotein Substrate Recognition Test)
LLC-GA5-COL300 cells (Human MDR1 expressing system derived from pig kidney derived, cultured renal epithelial cell line LLC-PK1) were cultured on a transwell. Immediately before the test, the culture medium was replaced by Hank's balanced salt solution (HBSS) and the test was then conducted. A solution of an assay compound adjusted to a final concentration of 10 μM was added to the donor side of LLC-GA5-COL300 cells and after the passage of a predetermined period of time, a specified quantity of […] was sampled from the acceptor side. The concentration of the assay compound in the sample was measured by LC-MS/MS. From the amounts of the compound that accumulated and passed into the acceptor side, membrane permeation coefficients (×10^−6 cm/sec) were calculated for apical→basal and basal→apical directions and their relative ratio (efflux ratio) was determined to evaluate the P-glycoprotein substrate recognition.

[5] = brain, read-out: intracerebral concentration
[6] = brain/plasma, read-out: brain/plasma movement ratio
[7] = cerebrospinal fluid, read-out: cerebrospinal fluid concentration
[8] = cerebrospinal fluid/plasma, read-out: cerebrospinal fluid/plasma movement ratio

Compound	IC50 [1] [nM]	IC50 [2] [nM]	concentration at 1 h [3, 5] [ng/g]	Kp at 1 h [3, 6]	concentration at 1 h [3, 7] [ng/mL]	Kp at 1 h [3, 8]	efflux ratio at 10 μM [4]
OCc1cn(-c2ccc(OC3CCN(C4CCC4)CC3)cc2)nn1 [Compound No. 22, (1-{4-[(1-cyclobutylpiperidin-4-yl)oxy]phenyl}-1H-1,2,3-triazol-4-yl)methanol]	–	5.4	209	1.5	67.6	0.5	1.1
CNC(=O)c1nnn(-c2ccc(OC3CCN(C4CCC4)CC3)cc2)c1C [compound 11, 1-{4-[(1-cyclobutylpiperidin-4-yl)oxy]phenyl}-N,5-dimethyl-1H-1,2,3-triazole-4-carboxamide]	–	19	–	–	–	–	–
O=C(Cc1cn(-c2ccc(OC3CCN(C4CCC4)CC3)cc2)nn1)N1CCC1 [compound 13, 1-(azetidin-1-yl)-2-(1-{4-[(1-cyclobutylpiperidin-4-yl)oxy]phenyl}-1H-1,2,3-triazol-4-yl)ethanone]	–	19	–	–	–	–	–
C[C@@H]1CCCN1CCCOc1ccc(-n2cc(C(=O)N3CCCC3)nn2)cc1 [compound 15, [1-(4-{3-[(2R)-2-methylpyrrolidin-1-yl]propoxy}phenyl)-1H-1,2,3-triazol-4-yl](pyrrolidin-1-yl)methanone]	–	8.9	–	–	–	–	–
C[C@@H]1CCCN1CCCOc1ccc(-n2cc(C(=O)N3CCC3)nn2)cc1 [compound 16, azetidin-1-yl[1-(4-{3-[(2R)-2-methylpyrrolidin-1-yl]propoxy}phenyl)-1H-1,2,3-triazol-4-yl]methanone]	–	16	–	–	–	–	–

Continued by falling IC50 [2], values first:

IC50 [1] [nM]	IC50 [2] [nM]	concentration at 1 h [3, 5] [ng/g]	Kp at 1 h [3, 6]	concentration at 1 h [3, 7] [ng/mL]	Kp at 1 h [3, 8]	efflux ratio at 10 μM [4]	Compound
–	37	–	–	–	–	–	Cc1c(C(=O)N2CCC2)nnn1-c1ccc(OC2CCN(C3CCC3)CC2)cc1 [compound 10, azetidin-1-yl(1-{4-[(1-cyclobutylpiperidin-4-yl)oxy]phenyl}-5-methyl-1H-1,2,3-triazol-4-yl)methanone]
–	32	–	–	–	–	–	CNC(=O)Cc1cn(-c2ccc(OC3CCN(C4CCC4)CC3)cc2)nn1 [compound 14, 2-(1-{4-[(1-cyclobutylpiperidin-4-yl)oxy]phenyl}-1H-1,2,3-triazol-4-yl)-N-methylacetamide]
–	24	–	–	–	–	–	Cc1c(C(=O)N2CCCC2)nnn1-c1ccc(OC2CCN(C3CCC3)CC2)cc1 [compound 9, (1-{4-[(1-cyclobutylpiperidin-4-yl)oxy]phenyl}-5-methyl-1H-1,2,3-triazol-4-yl)(pyrrolidin-1-yl)methanone]
–	22	820	4.4	134	0.7	0.7	CNC(=O)c1cn(-c2ccc(OC3CCN(C4CCC4)CC3)cc2)nn1 [Compound No. 19, 1-{4-[(1-cyclobutylpiperidin-4-yl)oxy]phenyl}-N-methyl-1H-1,2,3-triazole-4-carboxamide]
–	16	–	–	–	–	–	O=C(Cc1cn(-c2ccc(OC3CCN(C4CCC4)CC3)cc2)nn1)N1CCCC1 [compound 12, 2-(1-[4-[(1-cyclobutylpiperidin-4-yl)oxy]phenyl}-1H-1,2,3-triazol-4-yl)-1-(pyrrolidin-1-yl)ethanone]
≤ 100	1.8	45.7	3	2.9	0.2	1	O=C(c1cn(-c2ccc(OC3CCN(C4CCC4)CC3)cc2)nn1)N1CCCC1 [Compound No. 8, (1-{4-[(1-cyclobutylpiperidin-4-yl)oxy]phenyl}-1H-1,2,3-triazol-4-yl)(pyrrolidin-1-yl)methanone]
